Reference: US12630520B2, “Left-handed bicyclic morpholine and salt thereof, preparation method therefor, pharmaceutical composition, and use” (Institute of Materia Medica, Chinese Academy of Medical …, priority 2019, dated 2026)

Tests used:
[1] = test system: ConA-induced acute immune liver injuries; experiment: ConA-induced mouse acute immune liver injury model; assay type: in vivo; conditions: mouse serum; for ALT (U/L) / AST (U/L) / LDH (U/L): 200 mg/kg intragastric once a day x3, 20 mg/kg ConA tail vein, n = 10; for ALT reduction percent (%) / AST reduction percent (%) / LDH reduction percent (%): 200 mg/kg, versus ConA model group
Protocol: 1. Method for Establishment of a ConA-Induced Mouse Acute Immune Liver Injury Model and Method of Administration SPF-grade male ICR mice (20-22 g), after acclimatization, were randomly divided into 5 groups: a blank control group, a ConA-induced model group, a 200 mg/kg (+)IMM-H014 group, a 200 mg/kg (−)IMM-H014 group, and a 200 mg/kg (±)IMM-H014 group, 10 mice in each group. Each administration group was intragastrically administrated once a day, and it was totally administrated three times. The blank control group and the model group were intragastrically administrated with the same dose of physiological saline. At 2 hours after the last administration, the mice in each group except the blank control group, were injected once with 20 mg/kg ConA in the tail vein, and each administration dose was 10 ml/kg. The mice were in fasting but not in water deprivation for 16 h and then the animals waited for further treatment. 2. Determination of Biochemical Indexes The mice were decapitated and blood was taken, and the blood samples were kept still at room temperature for 2 h and centrifuged at 4000 rpm for 10 min, to separate the serum. The ALT, AST and LDH contents in the serum were detected with a full-automatic biochemical analyzer. The data each were presented as a number mean±standard deviation (x±SD).

[2] = test system: ethionine-induced non-alcoholic fatty liver; experiment: Ethionine-induced mouse non-alcoholic fatty liver model; assay type: in vivo; conditions: for TC (mmol/gprot): mouse liver tissue cholesterol; for TC (mmol/gprot) / TG (mmol/gprot): 200 mg/kg intragastric once a day x3, 250 mg/kg ethionine; for TG (mmol/gprot): mouse liver tissue triglyceride; for Percent TG reduction (%) / TC reduction percent (%): mouse liver tissue, 200 mg/kg, versus model group
Protocol: 1. Method for Establishment of an Ethionine-Induced Mouse Non-Alcoholic Fatty Liver Model and Method of Administration SPF-grade male ICR mice (20-22 g), after acclimatization, were randomly divided into 5 groups: a blank control group, an ethionine-induced model group, a 200 mg/kg (+)IMM-H014 group, a 200 mg/kg (−)IMM-H014 group, and a 200 mg/kg (±)IMM-H014 group, 5 mice in each group. Three days before the establishment of the models, each administration group was intragastrically administrated once per day, and it was totally administrated three times. The animals in the blank control group and the model group were intragastrically administrated with the same dose of physiological saline. Each administration dose was 10 mL/kg. One hour after the last administration, the mice in each group were intragastrically administrated with 250 mg/kg ethionine once. The administration dose was 20 ml/kg. The mice were in fasting but not in water deprivation for 24 h and then the animals waited for further treatment. 2. Determinations of the Contents of Triglyceride and Cholesterol in Liver Tissues The mice were subjected to thoracotomy to take out the livers which were washed with physiological saline at 4° C. A part of the liver tissues were prepared into a 10% liver tissue homogenate with a lysate and an electric homogenizer, wherein one part was measured according to the measurement methods of a triglyceride kit and a cholesterol kit to determine the triglyceride and cholesterol therein, and the other part was measured with a BCA protein quantification kit to determine the content of proteins therein. The triglyceride and cholesterol in the liver tissues were subjected to protein corrections. By adopting SPSS software, the data each were presented as a number mean±standard deviation (x±SD).

In the case of `COC(=O)c1cc(OC)c2c(c1-c1c(CN3CCOCC3)cc(OC)c3c1OCO3)OCO2` (racemic) [(±)IMM-H014], the “ALT (U/L)” value [1] is reported as 107.0 ± 108.7 U/L, the “AST (U/L)” value [1] is reported as 725.0 ± 417.3 U/L and the “LDH (U/L)” value [1] is reported as 3466.7 ± 1772.4 U/L. For the same compound, the “ALT reduction percent (%)” value [1] was 88.6%, the “AST reduction percent (%)” value [1] was 22.2% and the “LDH reduction percent (%)” value [1] was 6.4%. The “TC (mmol/gprot)” value [2] was 0.063 ± 0.013 mmol/gprot, the “TG (mmol/gprot)” value [2] was 0.110 ± 0.005 mmol/gprot and the “Percent TG reduction (%)” value [2] was 56.6%. The “TC reduction percent (%)” value [2] was 30.0%.
For `COC(=O)c1cc(OC)c2c(c1-c1c(CN3CCOCC3)cc(OC)c3c1OCO3)OCO2` [(+)IMM-H014], the “ALT (U/L)” value [1] was 44.4 ± 29.1 U/L, the “AST (U/L)” value [1] was 514.3 ± 310.7 U/L and the “LDH (U/L)” value [1] was 2680.0 ± 1190.8 U/L. The “ALT reduction percent (%)” value [1] was 95.3%, the “AST reduction percent (%)” value [1] was 44.8% and the “LDH reduction percent (%)” value [1] was 27.6%. The “TC (mmol/gprot)” value [2] was 0.065 ± 0.022 mmol/gprot, the “TG (mmol/gprot)” value [2] was 0.235 ± 0.070 mmol/gprot and the “Percent TG reduction (%)” value [2] was 7.1%. For the same compound, the “TC reduction percent (%)” value [2] was 27.2%.
In the case of `COC(=O)c1cc(OC)c2c(c1-c1c(CN3CCOCC3)cc(OC)c3c1OCO3)OCO2` [(−)IMM-H014], the “ALT (U/L)” value [1] is reported as 25.6 ± 17.4^###& U/L, the “AST (U/L)” value [1] is reported as 252.9 ± 233.5^##& U/L and the “LDH (U/L)” value [1] is reported as 1690.0 ± 929.3^##& U/L. For the same compound, the “ALT reduction percent (%)” value [1] was 97.3%, the “AST reduction percent (%)” value [1] was 72.9% and the “LDH reduction percent (%)” value [1] was 54.4%. The “TC (mmol/gprot)” value [2] was 0.061 ± 0.013 mmol/gprot, the “TG (mmol/gprot)” value [2] was 0.154 ± 0.040 mmol/gprot and the “Percent TG reduction (%)” value [2] was 39.0%. The “TC reduction percent (%)” value [2] was 32.4% and the “Percent TG reduction (%)” value ([2]; listed as (−) IMM-H014, 200 mg/kg) was 39.0%.
